Assays:
[1] = molecular target: T1, TRPM8 (Homo sapiens, UniProt Q7Z2W7)
From the text: (§1) Values were considered significant if the test compound mean was three or more standard deviations away from the positive control agonist mean.

[2] = Pharmacokinetic profile in rat; assay type: in vivo; conditions: plasma; for half-life: iv, read-out: t1/2 i.v. rat
[3] = molecular target: CYP 2D6 (Homo sapiens, UniProt P10635); assay: CYP inhibition; assay type: in vitro ADME
[4] = molecular target: TRPV4 (Homo sapiens, UniProt Q9HBA0); assay: Calcium influx counterassay, agonist GSK1016790A; assay type: cell-based; conditions: 10 μM GSK1016790A = 100%, read-out: Normalized % inhibition (TRPV4); for inhibition at 1 µM: Test Conc. 1 uM; for inhibition at 10 µM: Test Conc. 10 uM
Protocol: In parallel, the ability of each test compound to act as an antagonist of TRPV4 was evaluated with a calcium influx assay.

[5] = molecular target: CYP 1A2 (Homo sapiens, UniProt P05177); assay: CYP inhibition; assay type: in vitro ADME
[6] = test system: Female rats; assay: Isovolumetric bladder model; assay type: in vivo, rat
Protocol: Female rats were anesthetized with urethane. Ureters were ligated and sectioned. A catheter was inserted through the urinary meatus into the bladder before urethral ligature. […] 10 or 45 or with 100 μL of vehicle, then with 100 μL of saline every 5 min until the occurrence of rhythmic bladder contraction (RBC). A maximal volume of 3 mL was infused. The intravesical pressure was followed during 1 h30 after RBC appearance. For each group, Threshold Volume (TV), Micturition Frequency (MF) and Amplitude of Micturition (AM) were measured during the whole period. […] No effect on the total MF (measured during 90 min) was observed.

[7] = molecular target: CYP 2C19 (Homo sapiens, UniProt P33261); assay: CYP inhibition; assay type: in vitro ADME
[8] = molecular target: hERG channel (Homo sapiens, UniProt Q12809); assay: hERG binding
[9] = molecular target: T1, TRPM8; assay: cell-based
From the text: as §1

[10] = molecular target: TRPV1 (Homo sapiens, UniProt Q8NER1); assay: Calcium influx counterassay, agonist capsaicin; assay type: cell-based; conditions: 0.1 μM capsaicin = 100%, read-out: Normalized % inhibition (TRPV1); for inhibition at 1 µM: Test Conc. 1 uM; for inhibition at 10 µM: Test Conc. 10 uM
Protocol: In order to address more specifically the potential selectivity issues, a counterassay was carried out for 10, 45 and 118 against TRPV1 and TRPV4 ion channels, both involved in the nociception (Jhaveri M D, et al 2005. Eur. J. Neurosci. 22 (2): 361-70, Brierley S M et al, 2008, Gastroenterology. 2008 June; 134(7):2059-69. ). The ability of each test compound to act as an antagonist of TRPV1 was evaluated with a calcium influx assay.

[11] = molecular target: CYP 2C9 (Homo sapiens, UniProt P11712); assay: CYP inhibition; assay type: in vitro ADME
[12] = test system: Male Sprague-Dawley rats; assay: Chronic constriction injury model, mechanical allodynia (von Frey); assay type: in vivo, rat; conditions: 10 mg/kg i.v., 2 hours post-dosing, CCI rats
Protocol: Male Sprague-Dawley rats were used. Under pentobarbital anesthesia, the sciatic nerve was exposed at mid-thigh level (Bennett G J et al Pain. 33: 87-107, 1988). Four ligatures were loosely tied around the sciatic nerve of the left hind limb to induce enhancement of pain caused by nerve injury. Mechanical allodynia was evaluated by using a set of 8 manual von Frey monofilaments (0.4, 0.6, 1, 2, 4, 6, 8 and 15 g) 18 days after surgery and basal response was recorded.
On day 19 body weight was recorded and compounds 10 and 45 were administered by i.v. route at the dose of 10 mg/kg. 60, 120 and 180 min post dose, mechanical allodynia was tested by evaluation of the Paw Withdrawl Threshold (PWT) and % Maximum Possible Effect (MPE) was calculated according to the following formula: […]
The mechanical allodynia was tested 1 day before treatment and at 2 hours post-dosing. One-way ANOVA followed by Dunnett's test was applied for comparison between vehicle control and test compound treated groups. *p<0.05 is considered significant.

[13] = Microsome stability; assay type: in vitro ADME; conditions: human
[14] = molecular target: CYP 3A4 (Homo sapiens, UniProt P08684); assay: CYP inhibition; assay type: in vitro ADME
[15] = Plasma Protein Binding; assay type: in vitro ADME; conditions: rat
[16] = Microsome stability; assay type: in vitro ADME; conditions: rat
[17] = Plasma Protein Binding; assay type: in vitro ADME; conditions: human
[18] = Plasma stability; assay type: in vitro ADME; conditions: rat
[19] = Plasma stability; assay type: in vitro ADME; conditions: human
[20] = intravesical, 3 times 100 μL containing 0.1 mg

Chain of TRPV1 (Q8NER1 whole entry, species assumed): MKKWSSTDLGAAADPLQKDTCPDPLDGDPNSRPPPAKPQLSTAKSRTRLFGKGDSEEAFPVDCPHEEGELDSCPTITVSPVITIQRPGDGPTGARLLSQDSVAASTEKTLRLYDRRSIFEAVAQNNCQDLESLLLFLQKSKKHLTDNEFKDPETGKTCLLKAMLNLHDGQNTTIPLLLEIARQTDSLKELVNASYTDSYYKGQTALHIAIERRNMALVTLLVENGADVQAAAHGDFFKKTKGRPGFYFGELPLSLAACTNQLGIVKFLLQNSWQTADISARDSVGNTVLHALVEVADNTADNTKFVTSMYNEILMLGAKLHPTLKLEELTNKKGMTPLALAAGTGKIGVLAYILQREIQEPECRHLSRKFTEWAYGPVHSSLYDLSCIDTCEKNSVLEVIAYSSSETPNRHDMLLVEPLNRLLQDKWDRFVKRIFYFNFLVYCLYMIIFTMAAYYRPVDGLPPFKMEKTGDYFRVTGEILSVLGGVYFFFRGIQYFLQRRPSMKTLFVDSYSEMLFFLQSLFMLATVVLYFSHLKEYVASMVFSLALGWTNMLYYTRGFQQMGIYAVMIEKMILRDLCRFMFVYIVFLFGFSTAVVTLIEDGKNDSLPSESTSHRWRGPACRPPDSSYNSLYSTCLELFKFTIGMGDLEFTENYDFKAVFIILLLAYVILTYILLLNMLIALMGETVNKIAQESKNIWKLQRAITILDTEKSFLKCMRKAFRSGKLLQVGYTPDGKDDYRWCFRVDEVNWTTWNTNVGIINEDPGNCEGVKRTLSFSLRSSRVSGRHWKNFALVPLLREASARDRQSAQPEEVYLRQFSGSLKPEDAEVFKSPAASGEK
T1 sequence (Q7Z2W7 whole entry): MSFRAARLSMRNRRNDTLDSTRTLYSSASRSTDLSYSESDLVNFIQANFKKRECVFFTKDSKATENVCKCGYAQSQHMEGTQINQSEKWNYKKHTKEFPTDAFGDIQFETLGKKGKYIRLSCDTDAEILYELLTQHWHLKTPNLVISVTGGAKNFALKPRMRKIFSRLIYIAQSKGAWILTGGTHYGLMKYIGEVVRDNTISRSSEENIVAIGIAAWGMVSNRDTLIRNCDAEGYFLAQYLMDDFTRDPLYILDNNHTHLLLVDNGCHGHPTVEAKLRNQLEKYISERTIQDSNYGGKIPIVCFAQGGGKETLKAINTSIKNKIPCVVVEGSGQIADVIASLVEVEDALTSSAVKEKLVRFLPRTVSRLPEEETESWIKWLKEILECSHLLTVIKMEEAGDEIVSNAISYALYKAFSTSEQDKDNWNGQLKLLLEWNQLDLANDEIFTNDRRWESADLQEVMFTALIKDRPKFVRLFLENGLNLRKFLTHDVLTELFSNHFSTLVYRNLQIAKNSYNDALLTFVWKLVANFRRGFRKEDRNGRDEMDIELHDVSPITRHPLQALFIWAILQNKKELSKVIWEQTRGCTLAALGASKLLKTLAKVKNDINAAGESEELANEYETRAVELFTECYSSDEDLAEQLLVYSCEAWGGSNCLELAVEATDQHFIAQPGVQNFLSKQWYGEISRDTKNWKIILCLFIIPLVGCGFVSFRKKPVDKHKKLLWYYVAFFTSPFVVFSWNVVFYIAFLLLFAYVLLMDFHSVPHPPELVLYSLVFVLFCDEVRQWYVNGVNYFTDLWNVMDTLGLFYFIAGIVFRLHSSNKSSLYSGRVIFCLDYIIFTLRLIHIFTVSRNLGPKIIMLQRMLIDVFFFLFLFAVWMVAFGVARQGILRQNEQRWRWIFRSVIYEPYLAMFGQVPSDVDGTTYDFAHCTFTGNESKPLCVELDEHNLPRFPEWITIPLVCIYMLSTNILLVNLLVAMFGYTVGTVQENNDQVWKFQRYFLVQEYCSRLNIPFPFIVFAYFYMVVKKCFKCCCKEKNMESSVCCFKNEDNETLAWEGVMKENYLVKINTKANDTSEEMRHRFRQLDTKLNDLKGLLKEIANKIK
Chain of TRPV4 (Q9HBA0 whole entry, species assumed): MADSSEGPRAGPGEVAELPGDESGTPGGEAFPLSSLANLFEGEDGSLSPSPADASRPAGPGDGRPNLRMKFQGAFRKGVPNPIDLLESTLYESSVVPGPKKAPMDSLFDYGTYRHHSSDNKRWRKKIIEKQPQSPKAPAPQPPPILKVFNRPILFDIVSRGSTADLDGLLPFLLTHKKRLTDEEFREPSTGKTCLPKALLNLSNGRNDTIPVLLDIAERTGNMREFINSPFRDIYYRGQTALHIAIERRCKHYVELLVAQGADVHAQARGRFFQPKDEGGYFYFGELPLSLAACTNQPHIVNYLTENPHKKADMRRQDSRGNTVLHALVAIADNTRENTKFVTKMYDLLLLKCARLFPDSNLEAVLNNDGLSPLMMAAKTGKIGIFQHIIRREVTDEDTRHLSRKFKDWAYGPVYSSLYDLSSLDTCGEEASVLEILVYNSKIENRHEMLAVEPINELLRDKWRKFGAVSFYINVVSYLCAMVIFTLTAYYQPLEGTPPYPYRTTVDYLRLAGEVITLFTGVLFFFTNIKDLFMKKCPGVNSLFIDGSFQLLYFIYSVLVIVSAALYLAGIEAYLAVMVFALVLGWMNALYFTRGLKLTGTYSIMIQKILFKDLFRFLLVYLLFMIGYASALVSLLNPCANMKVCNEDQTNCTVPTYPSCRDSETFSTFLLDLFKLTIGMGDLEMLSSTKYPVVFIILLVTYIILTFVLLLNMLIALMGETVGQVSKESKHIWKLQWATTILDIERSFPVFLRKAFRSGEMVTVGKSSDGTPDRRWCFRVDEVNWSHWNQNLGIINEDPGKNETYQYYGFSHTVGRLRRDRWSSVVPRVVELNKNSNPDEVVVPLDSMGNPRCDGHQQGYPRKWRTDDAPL
Chain of CYP 2D6 (P10635 whole entry): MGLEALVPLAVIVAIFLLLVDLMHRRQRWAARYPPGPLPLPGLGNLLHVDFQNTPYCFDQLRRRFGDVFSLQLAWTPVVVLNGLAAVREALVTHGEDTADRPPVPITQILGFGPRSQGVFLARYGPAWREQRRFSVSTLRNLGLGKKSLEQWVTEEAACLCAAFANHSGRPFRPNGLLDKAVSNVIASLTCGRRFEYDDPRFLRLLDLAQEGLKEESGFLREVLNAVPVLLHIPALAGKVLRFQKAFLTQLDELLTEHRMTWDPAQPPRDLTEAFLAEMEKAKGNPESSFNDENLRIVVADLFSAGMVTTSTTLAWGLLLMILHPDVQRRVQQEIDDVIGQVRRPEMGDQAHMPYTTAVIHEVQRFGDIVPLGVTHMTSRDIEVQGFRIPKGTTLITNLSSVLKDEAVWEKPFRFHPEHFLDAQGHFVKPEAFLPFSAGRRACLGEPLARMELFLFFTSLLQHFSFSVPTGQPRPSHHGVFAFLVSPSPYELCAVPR
Chain of CYP 2C19 (P33261 whole entry): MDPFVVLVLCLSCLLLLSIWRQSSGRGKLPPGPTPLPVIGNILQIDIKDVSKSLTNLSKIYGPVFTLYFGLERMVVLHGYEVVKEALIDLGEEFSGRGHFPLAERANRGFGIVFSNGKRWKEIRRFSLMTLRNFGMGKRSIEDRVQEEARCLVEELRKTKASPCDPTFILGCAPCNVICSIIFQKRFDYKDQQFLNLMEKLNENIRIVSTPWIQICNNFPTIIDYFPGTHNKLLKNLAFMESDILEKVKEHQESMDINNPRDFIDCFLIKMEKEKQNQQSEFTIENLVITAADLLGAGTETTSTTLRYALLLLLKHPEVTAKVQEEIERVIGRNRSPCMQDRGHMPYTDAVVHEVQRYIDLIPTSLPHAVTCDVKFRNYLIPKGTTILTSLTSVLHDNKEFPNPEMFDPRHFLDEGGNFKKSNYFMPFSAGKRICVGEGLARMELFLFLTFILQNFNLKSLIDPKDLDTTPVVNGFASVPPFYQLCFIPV
Chain of CYP 2C9 (P11712 whole entry): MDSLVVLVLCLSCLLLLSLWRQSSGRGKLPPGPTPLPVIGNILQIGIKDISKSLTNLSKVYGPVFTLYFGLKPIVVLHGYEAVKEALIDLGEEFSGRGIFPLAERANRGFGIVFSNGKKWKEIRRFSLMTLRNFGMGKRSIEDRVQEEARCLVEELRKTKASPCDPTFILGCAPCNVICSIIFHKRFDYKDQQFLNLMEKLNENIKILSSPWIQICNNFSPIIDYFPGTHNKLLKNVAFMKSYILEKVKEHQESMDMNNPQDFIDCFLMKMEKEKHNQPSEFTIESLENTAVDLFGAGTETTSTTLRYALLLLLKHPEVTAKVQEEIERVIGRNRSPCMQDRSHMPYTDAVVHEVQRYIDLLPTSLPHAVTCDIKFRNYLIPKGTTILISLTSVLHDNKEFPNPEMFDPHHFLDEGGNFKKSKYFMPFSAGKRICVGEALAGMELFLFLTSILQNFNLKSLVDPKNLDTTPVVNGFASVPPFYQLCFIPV
Chain of CYP 1A2 (P05177 whole entry): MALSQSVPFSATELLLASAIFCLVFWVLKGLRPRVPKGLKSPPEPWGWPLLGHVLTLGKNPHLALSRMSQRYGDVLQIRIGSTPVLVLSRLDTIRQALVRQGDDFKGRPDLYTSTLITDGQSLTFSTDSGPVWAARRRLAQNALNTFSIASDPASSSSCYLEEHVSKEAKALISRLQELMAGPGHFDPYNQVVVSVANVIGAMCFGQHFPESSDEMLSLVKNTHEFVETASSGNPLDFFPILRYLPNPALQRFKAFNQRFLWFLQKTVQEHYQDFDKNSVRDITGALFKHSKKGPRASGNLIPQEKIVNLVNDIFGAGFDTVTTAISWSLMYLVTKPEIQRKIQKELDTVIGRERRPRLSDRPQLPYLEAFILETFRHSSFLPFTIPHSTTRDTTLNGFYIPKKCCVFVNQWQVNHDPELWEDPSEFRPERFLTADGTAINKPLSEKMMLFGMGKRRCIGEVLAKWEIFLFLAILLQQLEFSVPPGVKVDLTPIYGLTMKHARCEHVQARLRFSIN

| SMILES | antagonist activity in calcium influx assay [1] | half-life [2] | CYP (% inhibition) @10 μM, 2D6 [3] | inhibition at 1 µM [4] | inhibition at 10 µM [4] | CYP (% inhibition) @10 μM, 1A2 [5] | CYP (% inhibition) @10 μM, 2C19 [7] | hERG binding @10 μM [8] | IC50 [9] | inhibition at 1 µM [10] | inhibition at 10 µM [10] | CYP (% inhibition) @10 μM, 2C9 [11] | anti-allodynic activity, mechanical allodynia (PWT, % MPE) [12] | CYP (% inhibition) @10 μM, 3A4 [14] | fraction unbound at 10 μM [15] | fraction unbound at 10 μM [17] | also measured |
| --- | --- | --- | --- | --- | --- | --- | --- | --- | --- | --- | --- | --- | --- | --- | --- | --- | --- |
| CCOC(=O)c1sc(-c2cccc(F)c2)nc1O [Compound 10, ethyl 2-(3-fluorophenyl)-4-hydroxy-1,3-thiazole-5-carboxylate] | confirmed the antagonist activity | 0.833 h | <5% | 2% | 8.9% | <5% | <5% | No effect | 0.0002 µM | 1.2% | 2.3% | <5% | significant anti-allodynic activity | <5% | 0.02 | 0.03 | reduction of Micturition Frequency (MF) ([6]; 10 mg/kg i.v., first 30 min of the experiment): about 36%; continuous rhythmic bladder contraction (RBC) induced by filling with saline ([6]; intravesical route, 2.3 mg/rat): completely abolished; Amplitude of Micturition (AM) [6, 20]: did not change; Threshold Volume (TV) [6, 20]: 1.5 mL; effect on the total Micturition Frequency (MF) ([6]; intravesical, 3 times 100 μL containing 0.1 mg, measured during 90 min): No effect; Microsome stability (% remaining) @1 μM [13]: 5%; Microsome stability (% remaining) @1 μM [16]: 4% |
| O=C(O)c1sc(-c2ccc(Cl)cc2)nc1OCc1ccc(Cl)cc1 [Compound 45, 4-[(4-chlorobenzyl)oxy]-2-(4-chlorophenyl)-1,3-thiazole-5-carboxylic acid] | confirmed the antagonist activity | 4 h | <5% | 5.1% | 3.1% | <5% | <5% | No effect | 1 µM | 3.1% | 6.3% | <5% | significant anti-allodynic activity | <5% | 0.01 | 0.01 | Plasma stability (% remaining) @10 μM [18]: 9%; bioavailability ([2]; oral bioavailability): 60%; Plasma stability (% remaining) @10 μM [19]: 1% |

From patent publication US9585875B2, “TRPM8 antagonists” (Dompé S.P.A., priority 2011, dated 2017)
